Test results as given in article PMC4795541, “A Rapid and Quantitative Flow Cytometry Method for the Analysis of Membrane Disruptive Antimicrobial Activity” (PLoS ONE, 2016).
Marks after values point to notes of the source that are not given here. Where a SMILES comes first, the peptide text is derived from it. Where no end group is shown, it is not given here. [ ]: non-standard residue; d: D form. Phe(ol) = N[C@H](CO)Cc1ccccc1; Dab = NCC[C@H](N)C(=O)O; Dap = NC[C@H](N)C(=O)O; Aib = CC(C)(N)C(=O)O

Columns and labels:
F. nucleatum ATCC 25586 = assay: MDC, flow cytometry Syto9/PI membrane disruption assay; format: cell-based, Fusobacterium nucleatum; conditions: for MDC: F. nucleatum ATCC 25586, 90 min peptide/bacteria incubation, Syto9/PI flow cytometry, extrapolated to 100% PI+ cells, average of 3 assays ± SD; for Antimicrobial activity (MDC50): against F. nucleatum, maximum peptide concentration = 1000 µM
Description: We reasoned that as AMPs disrupt the cytoplasmic membrane we should be able to monitor this disruption using membrane permeable/impermeable fluorescent intercalating DNA dyes that are used to determine the viability of a microbial culture. We initially synthesised melittin (peptide sequence shown in S1 Table) a well characterised, broad-spectrum and potent AMP to investigate whether viability dyes, Syto9 (membrane permeable) and propidium iodide (PI, membrane impermeable), could be used to determine AMP activity, against the melittin-susceptible bacterium Fusobacterium nucleatum. […] Staining cells with 0.1% v/v Syto 9 in 0.9% […] (3.34mM stock solution) and 0.1% v/v PI in saline (50μg/mL stock solution) provided optimal concentrations that gave consistent and distinct cell populations; a membrane intact (Syto9+/PI-) and two membrane disrupted populations (Syto9+/PI+ and Syto9-/PI+; S1 Fig). […] Following from this we then incubated F. nucleatum with variant melittin concentrations and determined the proportion of membrane intact (Syto9+/PI-) and membrane disrupted (PI+ i.e. Syto9+/PI+ and Syto9-/PI+) populations. […] Linear regression of the PI+ values for the peptide concentrations prior to full membrane disruption (% PI+ cells ≤ 99% and ≥ 1–5%) gave an R^2 value of >0.9 and from extrapolation the minimum peptide concentration that induced 100% membrane disruption (MDC) could be determined (Fig 1c, insert). […] Melittin and magainin II are known to have high and low activities against the Gram positive bacterium Streptococcus mutans, respectively. […] Although the standard procedure is a 90 minute incubation of bacteria and AMP, we investigated whether the incubation time could be shortened.
For determination of MDC a 50 μL aliquot of the bacteria/AMP was mixed with 100 μL of 0.9% w/v saline containing 0.1% v/v of SYTO® 9 (3.34mM stock solution) and 0.1% v/v of PI (50μg/mL stock solution) and incubated for 10 minutes at room temperature in the dark. Following incubation the bacterial cell samples were analysed using a Cell Lab Quanta SC MPL flow cytometer (Beckman Coulter) equipped with a 100 W stabilized mercury arc lamp with wavelengths of 365, 404, and 435 nm, and a 488 nm diode laser. The fluorescence from SYTO® 9 was measured through a 525-nm band-pass filter (Fluorescent Channel 1, FL-1), and the red emission of PI was measured with a 670-nm long pass filter (Fluorescent Channel 3, FL-3). A minimum of 100,000 bacterial events were collected and the multi-parametric data analyzed using the Cell Lab Quanta SC software. NB for flow cytometers not fitted with an electrical volume detector for cell counting, the addition of microbeads to the samples can be used to determine cell numbers. MDC was calculated by plotting the percent PI+ cells for the each peptide concentration and fitting a linear curve to the data that is ≤ 99% PI+ cells and ≥ 1–5% PI+ cells (minimum of 4 data points). Inclusion of data points outside of these PI+ cell percentages will result in a positive or negative skewing of the MDC value. By solving the line equation (y = mx + C) for x (peptide concentration) when y = 1 (where 1 = 100% of PI+ cells) the MDC (x) can be determined i.e. MDC = x = (y − C)/m.

[1] = tested on: HEK-293 (ATCC CRL-1573) cells; assay: Inhibition of cell proliferation assay (MTS); format: cell-based; conditions: for IC50: HEK-293 cells 5×10^3, EMEM + 10% FBS, 28 h, MTS, A490, linear regression, maximum peptide concentration = 1000 µM; for Therapeutic Index (proliferation): IC50/MDC50 (F. nucleatum), given as x : 1
Method: After 28 h, 20 μL of 3-(4,5-dimethylthiazol-2-yl)-5-(3-carboxymethoxyphenyl)-2-(4-sulfophenyl)-2H-tetrazolium (MTS) solution (CellTiter 96 AQueous Non-Radioactive Cell Proliferation Assay kit, Promega) were added to each well and the plates were incubated for a further 1–2 h at 37°C, 5% CO2 incubator. Cell proliferation was determined by measuring absorbance at 490 nm using a microplate reader (PerkinElmer 1420 Multilabel Counter VICTOR3). Positive and negative controls for inhibition were taken as HEK-293 cells incubated with mytomycin C (5 μg/mL, Sigma Pty Ltd) and HEK-293 cells incubated in media alone, respectively. The percentage of inhibition was calculated using the following formula: % Inhibition = [(A490 test sample—A490 negative control) / (A490 positive control—A490 negative control)] × 100
The percentage of inhibition was plotted against peptide concentration and linear regression analysis was used to determine the AMP concentration needed to inhibit 50% (IC50) of the HEK-293 cells.

Compound | MDC (F. nucleatum ATCC 25586) | Antimicrobial activity (MDC50) (F. nucleatum ATCC 25586) [µM] | IC50 [1] [µM] | Therapeutic Index (proliferation) [1]
CC(=O)NC(C)(C)C(=O)N1CCC[C@H]1C(=O)NC(C)(C)C(=O)N[C@@H](C)C(=O)NC(C)(C)C(=O)N[C@@H](C)C(=O)N[C@@H](CCC(N)=O)C(=O)NC(C)(C)C(=O)N[C@H](C(=O)NC(C)(C)C(=O)NCC(=O)N[C@@H](CC(C)C)C(=O)NC(C)(C)C(=O)N1CCC[C@H]1C(=O)N[C@H](C(=O)NC(C)(C)C(=O)NC(C)(C)C(=O)N[C@@H](CCC(=O)O)C(=O)N[C@@H](CCC(N)=O)C(=O)N[C@H](CO)Cc1ccccc1)C(C)C)C(C)C [Alamethicin] (Ac-[Aib]P[Aib]A[Aib]AQ[Aib]V[Aib]GL[Aib]PV[Aib][Aib]EQ[Phe(ol)]; N-terminus assumed) | 21.1 ± 4.1 µM |  |  | 
CC[C@H](C)[C@H](NC(=O)CN)C(=O)NCC(=O)N[C@@H](CCN)C(=O)N[C@@H](Cc1ccccc1)C(=O)N[C@@H](CC(C)C)C(=O)N[C@@H](Cc1c[nH]cn1)C(=O)N[C@@H](CO)C(=O)N[C@@H](C)C(=O)N[C@@H](CCN)C(=O)N[C@@H](CCN)C(=O)N[C@@H](Cc1ccccc1)C(=O)NCC(=O)N[C@@H](CCN)C(=O)N[C@@H](C)C(=O)N[C@@H](Cc1ccccc1)C(=O)N[C@H](C(=O)NCC(=O)N[C@@H](CCC(=O)O)C(=O)N[C@H](C(=O)N[C@@H](CCSC)C(=O)N[C@@H](CC(N)=O)C(=O)N[C@@H](CO)C(N)=O)[C@@H](C)CC)C(C)C [Magainin-Dab] (H-GIG[Dab]FLHSA[Dab][Dab]FG[Dab]AFVGEIMNS-NH2; N-terminus assumed) | 11.0 ± 1.0 µM | 5.5 ± 0.5 | 178 ± 39.4 | 32.4 : 1
CC[C@H](C)[C@H](NC(=O)CN)C(=O)NCC(=O)N[C@@H](CN)C(=O)N[C@@H](Cc1ccccc1)C(=O)N[C@@H](CC(C)C)C(=O)N[C@@H](Cc1c[nH]cn1)C(=O)N[C@@H](CO)C(=O)N[C@@H](C)C(=O)N[C@@H](CN)C(=O)N[C@@H](CN)C(=O)N[C@@H](Cc1ccccc1)C(=O)NCC(=O)N[C@@H](CN)C(=O)N[C@@H](C)C(=O)N[C@@H](Cc1ccccc1)C(=O)N[C@H](C(=O)NCC(=O)N[C@@H](CCC(=O)O)C(=O)N[C@H](C(=O)N[C@@H](CCSC)C(=O)N[C@@H](CC(N)=O)C(=O)N[C@@H](CO)C(N)=O)[C@@H](C)CC)C(C)C [Magainin-Dap] (H-GIG[Dap]FLHSA[Dap][Dap]FG[Dap]AFVGEIMNS-NH2; N-terminus assumed) | 29.8±6.9^c μM | 14.9 ± 3.5 | 285 ± 19.4 | 19.1 : 1
GIGKFLHSAKKFGKAFVGEIMNS-NH2 [Magainin II] |  |  | 95.2 ± 32.2 | 20.2 : 1
GIGRFLHSARRFGRAFVGEIMNS-NH2 [Magainin-Arg] | 4.9±0.2^c μM | 2.5 ± 0.1 | 64.5 ± 3 | 25.8 : 1
GIGXFLHSAXXFGXAFVGEIMNS-CONH2 [Magainin-Orn, magainin II analogue, all lysine residues substituted with ornithine] | 11.4 ± 0.3 µM | 5.7 ± 0.2 | 168 ± 42.1 | 29.4 : 1
